Patent publication US11014934B2, “Antiseptic drug” (AO “TATKHIMFARMPREPARATY”, priority 2017, dated 2021)
Read-outs that look alike come from different tables or passages of the source.

Experiments:
[1] = system: Aspergillus fumigates RCPF F-1248/880; experiment: Antifungal activity, 2-fold serial dilutions in Saburo glucose broth; format: cell-based, Asp. fumigates; conditions: for MIC: Aspergillus
Procedure: The study of the antifungal activity of compound I in vitro was carried out in accordance with [Metodicheskiye rekomendatsii No 2. Mikologicheskoye issledovaniye ob″yektov okruzhayushchey sredy i opredeleniye protivogribkovoy aktivnosti razlichnykh veshchestv.—GOU DPO SPbMAPO NII meditsinskoy mikologii im. P. N. Kashkina, GBOU VPO SZGMU im. I. I. Mechnikova Minzdrava. SPb.: Izd. Dom SPbMAPO.—2008.—S. 16. Methodological recommendations No 2. Mycological examination of environmental objects and determination of antifungal activity of various substances.—State Educational Institution of St. Petersburg Medical Academy of Postgraduate Education with Scientific Research Institute of Medical Mycology named after P. N. Kashkin, State Educational Institution of Higher Professional Education North-West State Medical University named after I. I. Mechnikov, Ministry of Health. St. Petersburg.:: Publishing House SPbMAPO.—2008.—P. 16].
The study of the antifungal activity of substances in vitro was carried out in a liquid nutrient medium (Saburo glucose broth) in biological tubes by the method of 2-fold serial dilutions. In test tubes, three parallel series of dilutions of the test substance were prepared in the following way.
Saburo's liquid broth was sterilely poured in 3 ml into each tube; 4.5 ml was poured into the first tube of the row. A total of 14 tubes were used in a row; of which the last was a control one. […] The growth of cultures was initially assessed visually, comparing the growth of microorganisms in the presence of test compounds with the growth of culture without them. […] The first lowest concentration of the substance (from a series of consecutive dilutions), where the growth of fungi was suppressed or not visually determined, was considered the minimum inhibitory concentration (MIC).
For the preparation of inoculum, were respectively used pure (2-5) days cultures of yeast and mycelial fungi, grown on Saburo's dense nutrient broth. […] The inoculum was used within 15 minutes after preparation; the purity of the fungal strains was monitored before each experiment. […]

[2] = system: Escherichia coli CDC F-50; experiment: Disinfectant activity in suspension test; format: cell-based
Procedure: (§1) To prepare a bacterial suspension of the culture, microorganisms grown in dense nutrient medium for (18-24) hours were washed off with a sterile isotonic sodium chloride solution. The bacterial suspension of each microorganism was brought to a turbidity corresponding to a concentration of 1×10^9 cells/ml, which corresponds to 3 units of McFarland. For experiments with protein loading, a solution of bovine serum albumin (BSA) was added to the bacterial suspension to a final concentration of 0.2%.
(§2) Solutions of compound I, miramistin, and benzalkonium chloride were poured at a working concentration (0.1%, 0.2%) into a 24-well plate of 0.9 ml per well: 0.1 ml of microbial suspension was added to wells with disinfectant solutions and mixed by shaking for several seconds.
(§3) At the end of 1, 5, and 15 minutes of exposure, 0.5 ml of a universal neutralizer was added and mixed by shaking to deactivate the drugs and stop their antimicrobial activity. The neutralizer consisted of tween-80 (Sigma-Aldrich)—3.0 ml, saponin (DIAEM)—3.0 g, histidine—0.1 g, cysteine—0.1 g in 100 ml of phosphate-buffered solution.
(§4) The liquid was inoculated on a dense nutrient medium (Müller-Hinton agar) in 0.1 ml of the mixture, cultivation was carried out (24-48) hours at 37° C. Müller-Hinton broth was prepared from dry media (Mueller Hinton broth, Acumedia, Baltimore), cultivation was carried out on agarized Müller-Hinton broth, which included an additional 2% of agar. The media were autoclaved at 121° C. for 15 minutes.
(§5) After the time required for the cultivation of microorganisms, the results were counted according to the number of colonies grown on the Petri dish. In the absence of growth, the time for culturing microorganisms was increased by a factor of 2 (for example, when the cultivation time was 24 hours, it was left in the thermostat for up to 2 days). The experiment was carried out three times under the same conditions.
(§6) The criterion of efficacy of drugs in suspension is the death of 100% test microorganisms, with a duration of action not more than 30 minutes.

[3] = system: Staphylococcus aureus ATCC 209p; experiment: Disinfectant activity in suspension test; format: cell-based
Procedure: as §1, §2, §3, §4, §5, §6

[4] = 0.1% solution, exposure 1 min, +BSA
[5] = 0.1% solution, exposure 1 min, −BSA
[6] = 0.1% solution, exposure 5 min, +BSA
[7] = 0.1% solution, exposure 5 min, −BSA
[8] = 0.1% solution, exposure 15 min, +BSA
[9] = 0.1% solution, exposure 15 min, −BSA
[10] = 0.2% solution, exposure 1 min, +BSA
[11] = 0.2% solution, exposure 1 min, −BSA
[12] = 0.2% solution, exposure 5 min, +BSA
[13] = 0.2% solution, exposure 5 min, −BSA
[14] = 0.2% solution, exposure 15 min, +BSA
[15] = 0.2% solution, exposure 15 min, −BSA

Row | Molecule | Inhibition rate (M ± SD) of Escherichia coli CDC F-50 growth [2, 4] [%] | Inhibition rate (M ± SD) of Escherichia coli CDC F-50 growth [2, 5] [%] | Inhibition rate (M ± SD) of Escherichia coli CDC F-50 growth [2, 6] [%] | Inhibition rate (M ± SD) of Escherichia coli CDC F-50 growth [2, 7] [%] | Inhibition rate (M ± SD) of Escherichia coli CDC F-50 growth [2, 8] [%] | Inhibition rate (M ± SD) of Escherichia coli CDC F-50 growth [2, 9] [%] | Inhibition rate (M ± SD) of Escherichia coli CDC F-50 growth [2, 10] [%] | Inhibition rate (M ± SD) of Escherichia coli CDC F-50 growth [2, 11] [%] | Inhibition rate (M ± SD) of Escherichia coli CDC F-50 growth [2, 12] [%] | Inhibition rate (M ± SD) of Escherichia coli CDC F-50 growth [2, 13] [%] | Inhibition rate (M ± SD) of Escherichia coli CDC F-50 growth [2, 14] [%] | Inhibition rate (M ± SD) of Escherichia coli CDC F-50 growth [2, 15] [%] | Inhibition rate (M ± SD) Staphylococcus aureus ATCC 209p [3, 4] [%] | Inhibition rate (M ± SD) Staphylococcus aureus ATCC 209p [3, 5] [%] | Inhibition rate (M ± SD) Staphylococcus aureus ATCC 209p [3, 6] [%] | Inhibition rate (M ± SD) Staphylococcus aureus ATCC 209p [3, 7] [%] | Inhibition rate (M ± SD) Staphylococcus aureus ATCC 209p [3, 8] [%] | Inhibition rate (M ± SD) Staphylococcus aureus ATCC 209p [3, 9] [%] | Inhibition rate (M ± SD) Staphylococcus aureus ATCC 209p [3, 10] [%] | Inhibition rate (M ± SD) Staphylococcus aureus ATCC 209p [3, 11] [%] | further results
1 | CCCCCCCCCCCC[N+](C)(C)Cc1cnc(C[N+](C)(C)CCCCCCCCCCCC)c2c1COC(CC)O2 (centres unmarked) [Compound I, 5,8-(Bis(methylene (N, N-dimethyl-N-dodecylammonium))-2-ethyl-4H-[1,3]dioxino [4,5-c]pyridiniumdichloride] | 99.99 ± 0.005 | 99.99 | 99.99 ± 0.005 | 99.99 ± 0.005 | 100 | 100 | 99.99 ± 0.005 | 99.99 | 99.99 | 99.99 | 100 | 100 | 99.99 | 99.99 | 99.99 | 99.99 | 99.99 ± 0.005 | 99.99 ± 0.005 | 99.99 ± 0.005 | 100 | MIC ([1]; RCPFF1248/880, Asp. fumigates RCPF F-l248/880, read-out: The value of the MIC): 62.5 µg/mL; death of Staphylococcus aureus ATCC 209p ([3]; 0.1% solution): 99.99%; Inhibition rate (M ± SD) Staphylococcus aureus ATCC 209p [3, 12]: 99.99 ± 0.005%; Inhibition rate (M ± SD) Staphylococcus aureus ATCC 209p [3, 13]: 100%; Inhibition rate (M ± SD) Staphylococcus aureus ATCC 209p [3, 14]: 100%; Inhibition rate (M ± SD) Staphylococcus aureus ATCC 209p [3, 15]: 100%
2 | CCCCCCCCCCCCCC(=O)NCCC[N+](C)(C)Cc1ccccc1.O.[Cl-] [Miramistin, benzyldimethyl [3-(myristoylamino)propyl]-ammonium chloride monohydrate] | 99.98 ± 0.005 | 99.99 | 99.99 | 99.99 ± 0.005 | 99.99 ± 0.005 | 100 | 99.99 | 99.99 | 99.99 | 99.99 ± 0.005 | 100 | 100 | 99.99 | 99.9 | 99.99 | 99.99 | 99.99 ± 0.005 | 99.99 | 99.99 | 99.9 | MIC ([1]; RCPFF1248/880, read-out: The value of the MIC): 31.2 µg/mL; Inhibition rate (M ± SD) Staphylococcus aureus ATCC 209p [3, 12]: 99.99 ± 0.005%; Inhibition rate (M ± SD) Staphylococcus aureus ATCC 209p [3, 13]: 99.99%; Inhibition rate (M ± SD) Staphylococcus aureus ATCC 209p ([3]; 0.2% solution, exposure 15 min, +BSA, listed as miramistin, monohydrate): < 100%; Inhibition rate (M ± SD) Staphylococcus aureus ATCC 209p ([3]; 0.2% solution, exposure 15 min, +BSA, monohydrate): 99.99 ± 0.005%; Inhibition rate (M ± SD) Staphylococcus aureus ATCC 209p [3, 15]: 100%
3 | alkyldimethyl(phenylmethyl) ammonium chloride [Benzalconium chloride] | 99.99 ± 0.005 | 99.99 | 99.99 ± 0.005 | 99.99 ± 0.005 | 100 | 100 | 99.99 ± 0.005 | 99.99 ± 0.005 | 100 | 99.99 ± 0.005 | 100 | 100 | 99.99 | 99.99 | 99.99 | 99.99 | 99.99 ± 0.005 | 99.99 ± 0.005 | 100 | 100 | The value of the MIC ([1]; Asp. fumigates RCPF F-l248/880): 15.6 µg/mL; Inhibition rate (M ± SD) Staphylococcus aureus ATCC 209p [3, 12]: 100%; Inhibition rate (M ± SD) Staphylococcus aureus ATCC 209p [3, 13]: 100%; Inhibition rate (M ± SD) Staphylococcus aureus ATCC 209p [3, 14]: 100%; Inhibition rate (M ± SD) Staphylococcus aureus ATCC 209p [3, 15]: 100%
